Assay results published in paper PMC9250534, “Synthesis and direct assay of large macrocycle diversities by combinatorial late-stage modification at picomole scale” (Nature Communications, 2022).
“And” between values parts separate entries of the source, which are not always exact repeats. Equal entries are not always repeated. Where two headings read alike, the source gives them in different places. Values belong to the compound of their own block, whether it stands above or below them.

Key:
thrombin [1] = target: T1, thrombin (Homo sapiens, UniProt P00734); assay: Determination of Kis of purified thrombin inhibitors (IC50, Cheng-Prusoff); assay type: biochemical; conditions: for % thrombin activity: replicates 1-3
T1 construct: consists of two polypeptide chains of 36 (light chain) and 259 amino acid
Experimental: Purified thrombin inhibitors (10 mM in DMSO) were diluted to 80 μM in 125 μL of Tris buffer (100 mM Tris-Cl, 150 mM NaCl, 10 mM MgCl2, 1 mM CaCl2) containing 0.1% w/v BSA, 0.01% v/v Triton-X100 and […]. The macrocycles were diluted two-fold in Tris buffer containing 0.1% w/v BSA, 0.01% v/v Triton-X100 and 1% DMSO in buffer. The thrombin activity was measured in 96-well plates (Greiner, 655101) and the residual activity calculated as described above in the assay used to measure activities of HPLC-separated fractions of screening hits.
Supplementary Figure 7. Thrombin inhibitors M1 to M5. a, Chemical structures and analytical HPLC chromatograms obtained using a 0-100% MeCN/H2O gradient over 15 minutes. b, For all macrocycles, an 18 -point, two-fold serial dilution was performed in 50 µL volumes. Thrombin was added (50 µL, 2 nM final conc.), followed 10 minutes later by fluorogenic substrate Z -Gly-Gly-Arg-AMC (50 µL, 50 µM final conc.). The increase in fluorescence was measured over 30 minutes.
Residual thrombin activity was determined by dividing the slope of fluorescenc e intensity over time for each well by the slope of control wells without macrocycle. Mean values and SDs are indicated for three independent thrombin inhibition measurements.
(1 picture or pasted object on this page, not shown here)

thrombin [2] = target: T1, thrombin; assay: Thrombin inhibition screen of crude macrocycle reactions (residual thrombin activity, fluorogenic substrate Z-Gly-Gly-Arg-AMC); assay type: biochemical; conditions: 10 µM macrocycle concentration, macrocycles containing acid 14, crude reaction
Outline: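 Residual activity was measured as the AMC release rate after adding 50 μM Z-Gly-Gly-Arg-AMC. This followed a 10-min room-temperature preincubation of 2 nM thrombin with 10 μM single macrocycles in pH 7.4 Tris buffer (0.6% DMSO). Percent inhibition was taken against the mean slope of DMSO controls.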

[3] = thrombin, average of 3 replicates, read-out: IC50 (nM) Average
[4] = thrombin, replicate 1, Cheng-Prusoff, read-out: Ki (nM) Replicate 1
[5] = thrombin, replicate 1, read-out: IC50 (nM) Replicate 1
[6] = thrombin, replicate 2, Cheng-Prusoff, read-out: Ki (nM) Replicate 2
[7] = thrombin, replicate 2, read-out: IC50 (nM) Replicate 2
[8] = thrombin, replicate 3, Cheng-Prusoff, read-out: Ki (nM) Replicate 3
[9] = thrombin, replicate 3, read-out: IC50 (nM) Replicate 3

SMILES: NC(=O)c1ccc(Cl)s1 [5-chlorothiophene-2-carboxamide, reference compound]
- Ki (thrombin [1]; read-out: Ki thrombin): 380000 nM

SMILES: O=C1CCSSCCNC(=O)C(CNC(=O)c2ccc(Cl)s2)NC(=O)c2cccc(c2)CNC(=O)C(Cc2ccccc2)N1 (stereo not shown) [M2]
- % thrombin activity, Original screen (thrombin [2]; original screen): 6.9%
- % thrombin activity, Repeat screen (thrombin [2]; replicate reaction and screen): 6.5%
- % thrombin activity (thrombin [1]; Log [Macrocycle] M -8.8): 99.5% and 97.4% and 98.4%
- % thrombin activity (thrombin [1]; Log [Macrocycle] M -9.1): 100.1% (2×) and 99.4%
- % thrombin activity (thrombin [1]; Log [Macrocycle] M -9.4): 100.7% and 100.1% and 99.7%
- % thrombin activity (thrombin [1]; Log [Macrocycle] M -9.7): 100.6% and 99.6% and 99.8%
- % thrombin activity (thrombin [1]; Log[Macrocycle] M -4.6): 3.5% and 3.8% and 4.4%
- % thrombin activity (thrombin [1]; Log[Macrocycle] M -4.9): 4.9% (2×) and 5.4%
- % thrombin activity (thrombin [1]; Log[Macrocycle] M -5.2): 6.7% and 6.5% and 7.1%
- % thrombin activity (thrombin [1]; Log[Macrocycle] M -5.5): 9.9% and 8.4% and 9.6%
- % thrombin activity (thrombin [1]; Log[Macrocycle] M -5.8): 16.3% and 13.3% and 13.6%
- % thrombin activity (thrombin [1]; Log[Macrocycle] M -6.1): 26.3% and 21.4% and 21.2%
- % thrombin activity (thrombin [1]; Log[Macrocycle] M -6.4): 42.5% and 32.8% and 34.8%
- % thrombin activity (thrombin [1]; Log[Macrocycle] M -6.7): 58.0% and 47.2% and 49.8%
- % thrombin activity (thrombin [1]; Log[Macrocycle] M -7.0): 71.8% and 64.0% and 65.5%
- % thrombin activity (thrombin [1]; Log[Macrocycle] M -7.3): 83.6% and 77.5% and 79.8%
- % thrombin activity (thrombin [1]; Log[Macrocycle] M -7.6): 92.7% and 85.4% and 86.8%
- % thrombin activity (thrombin [1]; Log[Macrocycle] M -7.9): 95.0% and 92.0% and 93.5%
- % thrombin activity (thrombin [1]; Log[Macrocycle] M -8.2): 99.2% and 94.0% and 94.1%
- % thrombin activity (thrombin [1]; Log[Macrocycle] M -8.5): 98.9% and 96.9% and 97.6%
- IC50 (thrombin [1]; [3]): 214 nM
- Ki (thrombin [1]; [4]): 210 nM
- IC50 (thrombin [1]; [5]): 270 nM
- Ki (thrombin [1]; [6]): 138 nM
- IC50 (thrombin [1]; [7]): 179 nM
- Ki (thrombin [1]; [8]): 149 nM
- IC50 (thrombin [1]; [9]): 193 nM

SMILES: CC(C)C1NC(=O)CCSCSCCNC(=O)C(CNC(=O)c2ccc(Cl)s2)NC(=O)c2cccc(c2)CNC1=O (stereo not shown) [M4]
- % thrombin activity (thrombin [1]; Log [Macrocycle] M -4.5): 0.233% and 0.231% and 2.7%
- % thrombin activity (thrombin [1]; Log [Macrocycle] M -4.8): 1.1% and 1.5% and 2.1%
- % thrombin activity (thrombin [1]; Log [Macrocycle] M -5.1): 2.6% and 3.2% and -2.3%
- % thrombin activity (thrombin [1]; Log [Macrocycle] M -5.4): 3.6% and 5.7% and 3.8%
- % thrombin activity (thrombin [1]; Log [Macrocycle] M -5.7): 8.1% and 9.4% and 6.2%
- % thrombin activity (thrombin [1]; Log [Macrocycle] M -6.0): 12.9% and 16.1% and 11.7%
- % thrombin activity (thrombin [1]; Log [Macrocycle] M -6.3): 22.1% and 27.3% and 19.3%
- % thrombin activity (thrombin [1]; Log [Macrocycle] M -6.6): 34.1% and 41.1% and 30.9%
- % thrombin activity (thrombin [1]; Log [Macrocycle] M -6.9): 55.7% and 58.5% and 45.5%
- % thrombin activity (thrombin [1]; Log [Macrocycle] M -7.2): 67.0% and 71.8% and 59.8%
- % thrombin activity (thrombin [1]; Log [Macrocycle] M -7.5): 78.0% and 82.2% and 70.6%
- % thrombin activity (thrombin [1]; Log [Macrocycle] M -7.8): 96.6% and 99.4% and 81.6%
- % thrombin activity (thrombin [1]; Log [Macrocycle] M -8.1): 97.9% and 103.9% and 87.1%
- % thrombin activity (thrombin [1]; Log [Macrocycle] M -8.4): 104.8% and 107.0% and 92.8%
- % thrombin activity (thrombin [1]; Log [Macrocycle] M -8.7): 103.7% and 107.0% and 93.5%
- % thrombin activity (thrombin [1]; Log [Macrocycle] M -9.0): 106.1% and 107.4% and 94.0%
- % thrombin activity (thrombin [1]; Log [Macrocycle] M -9.3): 106.8% and 100.7% and 99.2%
- % thrombin activity (thrombin [1]; Log [Macrocycle] M -9.6): 107.9% and 105.2% and 99.6%
- IC50 (thrombin [1]; [3]): 108 nM
- IC50 (thrombin [1]; [5]): 119 nM
- Ki (thrombin [1]; thrombin, replicate 1, read-out: Ki (nM) Replicate 1): 92 nM
- IC50 (thrombin [1]; [7]): 106 nM
- Ki (thrombin [1]; thrombin, replicate 2, read-out: Ki (nM) Replicate 2): 82 nM
- IC50 (thrombin [1]; [9]): 99 nM
- Ki (thrombin [1]; thrombin, replicate 3, read-out: Ki (nM) Replicate 3): 76 nM

More lines, in order of falling IC50 (thrombin [1]; [3]), values ahead:

- % thrombin activity (thrombin [1]; Log [Macrocycle] M -8.8): 98.3% and 97.3% and 97.1%
- % thrombin activity (thrombin [1]; Log [Macrocycle] M -9.1): 98.8% and 98.0% and 98.2%
- % thrombin activity (thrombin [1]; Log [Macrocycle] M -9.4): 99.9% and 97.2% and 99.1%
- % thrombin activity (thrombin [1]; Log [Macrocycle] M -9.7): 93.6% and 99.4% (2×)
- % thrombin activity (thrombin [1]; Log[Macrocycle] M -4.6): -0.0344% and 0.5% and 0.739%
- % thrombin activity (thrombin [1]; Log[Macrocycle] M -4.9): 0.656% and 1.5% and 1.0%
- % thrombin activity (thrombin [1]; Log[Macrocycle] M -5.2): 2.2% and 5.0% and 2.4%
- % thrombin activity (thrombin [1]; Log[Macrocycle] M -5.5): 4.8% and 4.9% and 5.3%
- % thrombin activity (thrombin [1]; Log[Macrocycle] M -5.8): 9.4% and 9.7% (2×)
- % thrombin activity (thrombin [1]; Log[Macrocycle] M -6.1): 17.5% and 15.4% and 16.3%
- % thrombin activity (thrombin [1]; Log[Macrocycle] M -6.4): 29.4% and 28.1% and 27.8%
- % thrombin activity (thrombin [1]; Log[Macrocycle] M -6.7): 45.2% and 42.3% and 41.8%
- % thrombin activity (thrombin [1]; Log[Macrocycle] M -7.0): 60.5% and 58.8% and 57.9%
- % thrombin activity (thrombin [1]; Log[Macrocycle] M -7.3): 75.1% and 75.3% and 74.4%
- % thrombin activity (thrombin [1]; Log[Macrocycle] M -7.6): 85.8% and 81.9% and 83.6%
- % thrombin activity (thrombin [1]; Log[Macrocycle] M -7.9): 92.4% and 87.2% and 91.4%
- % thrombin activity (thrombin [1]; Log[Macrocycle] M -8.2): 97.7% and 93.3% and 94.6%
- % thrombin activity (thrombin [1]; Log[Macrocycle] M -8.5): 97.5% and 94.4% and 96.1%
- IC50 (thrombin [1]; [3]): 160 nM
- Ki (thrombin [1]; [4]): 134 nM
- IC50 (thrombin [1]; [5]): 170 nM
- Ki (thrombin [1]; [6]): 121 nM
- IC50 (thrombin [1]; [7]): 160 nM
- Ki (thrombin [1]; [8]): 119 nM
- IC50 (thrombin [1]; [9]): 150 nM
SMILES: CC(C)[C@@H]1NC(=O)CCSSCCNC(=O)[C@H](CNC(=O)c2ccc(Cl)s2)NC(=O)c2cccc(c2)CNC1=O [M3]

- % thrombin activity (thrombin [1]; Log [Macrocycle] M -8.8): 98.0% and 96.9% and 96.6%
- % thrombin activity (thrombin [1]; Log [Macrocycle] M -9.1): 99.2% and 98.3% and 98.9%
- % thrombin activity (thrombin [1]; Log [Macrocycle] M -9.4): 99.9% and 99.1% and 103.5%
- % thrombin activity (thrombin [1]; Log [Macrocycle] M -9.7): 100.7% and 100.1% and 99.6%
- % thrombin activity (thrombin [1]; Log[Macrocycle] M -4.6): -0.0543% and 1.1% and -0.4%
- % thrombin activity (thrombin [1]; Log[Macrocycle] M -4.9): 0.156% and 0.7% and 0.8%
- % thrombin activity (thrombin [1]; Log[Macrocycle] M -5.2): 0.8% (2×) and 1.8%
- % thrombin activity (thrombin [1]; Log[Macrocycle] M -5.5): 1.9% (2×) and 2.1%
- % thrombin activity (thrombin [1]; Log[Macrocycle] M -5.8): 3.9% and 4.1% and 4.6%
- % thrombin activity (thrombin [1]; Log[Macrocycle] M -6.1): 7.3% and 6.9% and 7.7%
- % thrombin activity (thrombin [1]; Log[Macrocycle] M -6.4): 13.7% and 13.0% and 13.6%
- % thrombin activity (thrombin [1]; Log[Macrocycle] M -6.7): 22.7% and 21.8% and 22.6%
- % thrombin activity (thrombin [1]; Log[Macrocycle] M -7.0): 35.5% and 35.6% and 37.1%
- % thrombin activity (thrombin [1]; Log[Macrocycle] M -7.3): 54.7% and 53.1% and 53.5%
- % thrombin activity (thrombin [1]; Log[Macrocycle] M -7.6): 68.7% and 65.3% and 67.8%
- % thrombin activity (thrombin [1]; Log[Macrocycle] M -7.9): 81.7% and 81.8% and 83.6%
- % thrombin activity (thrombin [1]; Log[Macrocycle] M -8.2): 91.6% and 89.3% and 88.1%
- % thrombin activity (thrombin [1]; Log[Macrocycle] M -8.5): 94.7% and 92.6% and 94.4%
- IC50 (thrombin [1]; [3]): 58 nM
- Ki (thrombin [1]; [4]): 45 nM
- IC50 (thrombin [1]; [5]): 59 nM
- Ki (thrombin [1]; [6]): 43 nM
- IC50 (thrombin [1]; [7]): 56 nM
- Ki (thrombin [1]; [8]): 45 nM
- IC50 (thrombin [1]; [9]): 58 nM
SMILES: CC(C)[C@H]1NC(=O)CCSSCCNC(=O)[C@H](CNC(=O)c2ccc(Cl)s2)NC(=O)c2cccc(c2)CNC1=O [M1]
